ChEMBL document CHEMBL3243997, “(Acylaryloxy)acetic acid diuretics. 2. (2-Alkyl-2-aryl-1-oxo-5-indanyloxy)acetic acids” (1978)

Each compound was assayed on Canis familiaris (assay: Diuretic activity in dog assessed as chloride level in urine per min at 5 mg/kg, iv relative to control).
Type: functional, Canis lupus familiaris

| Compound | Activity |
| --- | --- |
| Cc1c(OCC(=O)O)cc2c(c1Cl)C(=O)C(C)(c1ccccc1)C2 (stereo not drawn) | 262 µEq/min |
| CC1(c2ccc(Br)cc2)Cc2cc(OCC(=O)O)c(Cl)c(Cl)c2C1=O (stereo not drawn) | 34 µEq/min |
| O=C(O)COc1cc2c(c(Cl)c1Cl)C(=O)C(c1ccccc1)(c1ccccc1)C2 | 5 µEq/min |
| CC1(c2ccc(O)cc2)Cc2cc(OCC(=O)O)c(Cl)c(Cl)c2C1=O (stereo not drawn) | 1460 µEq/min |
| CC1(c2ccc(Cl)cc2)Cc2cc(OCC(=O)O)c(Cl)c(Cl)c2C1=O (stereo not drawn) | 282 µEq/min |
| CC1(c2ccc([N+](=O)[O-])cc2)Cc2cc(OCC(=O)O)c(Cl)c(Cl)c2C1=O (stereo not drawn) | 810 µEq/min |

Each compound was assayed on Rattus norvegicus (assay: Natriuretic activity in rat assessed as per cage at 9 mg/kg, po).
Type: functional

| Compound | Activity |
| --- | --- |
| Cc1c(OCC(=O)O)cc2c(c1Cl)C(=O)C(C)(c1ccccc1)C2 (stereo not drawn) | 1.16 mEq |
| CC1(c2ccc(Br)cc2)Cc2cc(OCC(=O)O)c(Cl)c(Cl)c2C1=O (stereo not drawn) | 0.29 mEq |
| O=C(O)COc1cc2c(c(Cl)c1Cl)C(=O)C(c1ccccc1)(c1ccccc1)C2 | 0.93 mEq |
| CC1(c2ccc(O)cc2)Cc2cc(OCC(=O)O)c(Cl)c(Cl)c2C1=O (stereo not drawn) | 0.33 mEq |
| CC1(c2ccc(Cl)cc2)Cc2cc(OCC(=O)O)c(Cl)c(Cl)c2C1=O (stereo not drawn) | 0.3 mEq |
| CC1(c2ccc([N+](=O)[O-])cc2)Cc2cc(OCC(=O)O)c(Cl)c(Cl)c2C1=O (stereo not drawn) | 1.02 mEq |

The compounds below were run on Rattus norvegicus (assay: Natriuretic activity in rat assessed as per cage at 27 mg/kg, po).
Type: functional

| Compound | Activity |
| --- | --- |
| Cc1c(OCC(=O)O)cc2c(c1Cl)C(=O)C(C)(c1ccccc1)C2 (stereo not drawn) | 1.38 mEq |
| CC1(c2ccc(Br)cc2)Cc2cc(OCC(=O)O)c(Cl)c(Cl)c2C1=O (stereo not drawn) | 0.27 mEq |
| O=C(O)COc1cc2c(c(Cl)c1Cl)C(=O)C(c1ccccc1)(c1ccccc1)C2 | 1.09 mEq |
| CC1(c2ccc(O)cc2)Cc2cc(OCC(=O)O)c(Cl)c(Cl)c2C1=O (stereo not drawn) | 0.35 mEq |
| CC1(c2ccc(Cl)cc2)Cc2cc(OCC(=O)O)c(Cl)c(Cl)c2C1=O (stereo not drawn) | 0.25 mEq |
| CC1(c2ccc([N+](=O)[O-])cc2)Cc2cc(OCC(=O)O)c(Cl)c(Cl)c2C1=O (stereo not drawn) | 1.68 mEq |

These compounds were tested on Rattus norvegicus (assay: Natriuretic activity in rat assessed as per cage at 3 mg/kg, po).
Type: functional

| Compound | Activity |
| --- | --- |
| Cc1c(OCC(=O)O)cc2c(c1Cl)C(=O)C(C)(c1ccccc1)C2 (stereo not drawn) | 1.35 mEq |
| CC1(c2ccc(Br)cc2)Cc2cc(OCC(=O)O)c(Cl)c(Cl)c2C1=O (stereo not drawn) | 0.21 mEq |
| O=C(O)COc1cc2c(c(Cl)c1Cl)C(=O)C(c1ccccc1)(c1ccccc1)C2 | 0.4 mEq |
| CC1(c2ccc(O)cc2)Cc2cc(OCC(=O)O)c(Cl)c(Cl)c2C1=O (stereo not drawn) | 0.17 mEq |
| CC1(c2ccc(Cl)cc2)Cc2cc(OCC(=O)O)c(Cl)c(Cl)c2C1=O (stereo not drawn) | 0.21 mEq |
| CC1(c2ccc([N+](=O)[O-])cc2)Cc2cc(OCC(=O)O)c(Cl)c(Cl)c2C1=O (stereo not drawn) | 0.89 mEq |

What follows are compounds tested on Rattus norvegicus (assay: Natriuretic activity in rat assessed as per cage at 81 mg/kg, po).
Type: functional

| Compound | Activity |
| --- | --- |
| Cc1c(OCC(=O)O)cc2c(c1Cl)C(=O)C(C)(c1ccccc1)C2 (stereo not drawn) | 1.62 mEq |
| CC1(c2ccc(Br)cc2)Cc2cc(OCC(=O)O)c(Cl)c(Cl)c2C1=O (stereo not drawn) | 0.42 mEq |
| O=C(O)COc1cc2c(c(Cl)c1Cl)C(=O)C(c1ccccc1)(c1ccccc1)C2 | 0.95 mEq |
| CC1(c2ccc(Cl)cc2)Cc2cc(OCC(=O)O)c(Cl)c(Cl)c2C1=O (stereo not drawn) | 0.37 mEq |
| CC1(c2ccc([N+](=O)[O-])cc2)Cc2cc(OCC(=O)O)c(Cl)c(Cl)c2C1=O (stereo not drawn) | 1.98 mEq |

Each compound was assayed on Canis familiaris (assay: Diuretic activity in dog assessed as sodium level in urine per min at 5 mg/kg, iv relative to control).
Type: functional, Canis lupus familiaris

| Compound | Activity |
| --- | --- |
| Cc1c(OCC(=O)O)cc2c(c1Cl)C(=O)C(C)(c1ccccc1)C2 (stereo not drawn) | 226 µEq/min |
| CC1(c2ccc(Br)cc2)Cc2cc(OCC(=O)O)c(Cl)c(Cl)c2C1=O (stereo not drawn) | 96 µEq/min |
| O=C(O)COc1cc2c(c(Cl)c1Cl)C(=O)C(c1ccccc1)(c1ccccc1)C2 | 44 µEq/min |
| CC1(c2ccc(O)cc2)Cc2cc(OCC(=O)O)c(Cl)c(Cl)c2C1=O (stereo not drawn) | 1260 µEq/min |
| CC1(c2ccc(Cl)cc2)Cc2cc(OCC(=O)O)c(Cl)c(Cl)c2C1=O (stereo not drawn) | 305 µEq/min |
| CC1(c2ccc([N+](=O)[O-])cc2)Cc2cc(OCC(=O)O)c(Cl)c(Cl)c2C1=O (stereo not drawn) | 751 µEq/min |

The compounds below were run on Canis familiaris (assay: Diuretic activity in dog assessed as […] urine volume at 5 mg/kg, iv relative to control).
Type: functional, Canis lupus familiaris

| Compound | Activity |
| --- | --- |
| Cc1c(OCC(=O)O)cc2c(c1Cl)C(=O)C(C)(c1ccccc1)C2 (stereo not drawn) | 4 mL |
| CC1(c2ccc(Br)cc2)Cc2cc(OCC(=O)O)c(Cl)c(Cl)c2C1=O (stereo not drawn) | 3 mL |
| O=C(O)COc1cc2c(c(Cl)c1Cl)C(=O)C(c1ccccc1)(c1ccccc1)C2 | 2 mL |
| CC1(c2ccc(O)cc2)Cc2cc(OCC(=O)O)c(Cl)c(Cl)c2C1=O (stereo not drawn) | 10 mL |
| CC1(c2ccc(Cl)cc2)Cc2cc(OCC(=O)O)c(Cl)c(Cl)c2C1=O (stereo not drawn) | 6 mL |
| CC1(c2ccc([N+](=O)[O-])cc2)Cc2cc(OCC(=O)O)c(Cl)c(Cl)c2C1=O (stereo not drawn) | 8 mL |

These compounds were tested on Pan troglodytes (assay: Natriuretic activity in chimpanzee assessed as change in Curate to Cinsulin ratio at 5 mg/kg, po).
Type: functional

| Compound | Ratio |
| --- | --- |
| Cc1c(OCC(=O)O)cc2c(c1Cl)C(=O)C(C)(c1ccccc1)C2 (stereo not drawn) | 0.31 |
| CC1(c2ccc(Br)cc2)Cc2cc(OCC(=O)O)c(Cl)c(Cl)c2C1=O (stereo not drawn) | 0.01 |
| O=C(O)COc1cc2c(c(Cl)c1Cl)C(=O)C(c1ccccc1)(c1ccccc1)C2 | 0.03 |
| CC1(c2ccc(O)cc2)Cc2cc(OCC(=O)O)c(Cl)c(Cl)c2C1=O (stereo not drawn) | 0.02 |
| CC1(c2ccc(Cl)cc2)Cc2cc(OCC(=O)O)c(Cl)c(Cl)c2C1=O (stereo not drawn) | 0.25 |
| CC1(c2ccc([N+](=O)[O-])cc2)Cc2cc(OCC(=O)O)c(Cl)c(Cl)c2C1=O (stereo not drawn) | 0.03 |

These compounds were tested on Pan troglodytes (assay: Natriuretic activity in chimpanzee assessed as per min at 5 mg/kg, po).
Type: functional

| Compound | Activity |
| --- | --- |
| Cc1c(OCC(=O)O)cc2c(c1Cl)C(=O)C(C)(c1ccccc1)C2 (stereo not drawn) | 479 uEq |
| CC1(c2ccc(Br)cc2)Cc2cc(OCC(=O)O)c(Cl)c(Cl)c2C1=O (stereo not drawn) | 27 uEq |
| O=C(O)COc1cc2c(c(Cl)c1Cl)C(=O)C(c1ccccc1)(c1ccccc1)C2 | 19 uEq |
| CC1(c2ccc(O)cc2)Cc2cc(OCC(=O)O)c(Cl)c(Cl)c2C1=O (stereo not drawn) | 151 uEq |
| CC1(c2ccc(Cl)cc2)Cc2cc(OCC(=O)O)c(Cl)c(Cl)c2C1=O (stereo not drawn) | 302 uEq |
| CC1(c2ccc([N+](=O)[O-])cc2)Cc2cc(OCC(=O)O)c(Cl)c(Cl)c2C1=O (stereo not drawn) | 176 uEq |
